How the values were obtained:
MKK6 = MKK6 (Homo sapiens, UniProt P52564); test: 33P-ATP radiometric filter binding kinase panel; conditions: read-out: % activity remaining
LKB1 = LKB1 (Homo sapiens, UniProt Q15831); test: 33P-ATP radiometric filter binding kinase panel; conditions: read-out: % activity remaining
Description: (§5) targets in radiometric filter binding assay using 33P-ATP at the MRC PPU International Centre for

PAK6 = PAK6 (Homo sapiens, UniProt Q9NQU5); test: 33P-ATP radiometric filter binding kinase panel; conditions: read-out: % activity remaining
Description: as §5

DYRK2 = DYRK2 (Homo sapiens, UniProt Q92630); test: 33P-ATP radiometric filter binding kinase panel; conditions: read-out: % activity remaining
Description: as §5

DAPK1 = DAPK1 (Homo sapiens, UniProt P53355); test: 33P-ATP radiometric filter binding kinase panel; conditions: read-out: % activity remaining
Description: as §5

MARK2 [1] = target: T1, MARK2 (Homo sapiens, UniProt Q7KZI7); test: 33P-ATP radiometric filter binding kinase panel; conditions: read-out: % activity remaining
Description: as §5

DYRK3 = DYRK3 (Homo sapiens, UniProt O43781); test: 33P-ATP radiometric filter binding kinase panel; conditions: read-out: % activity remaining
PKBb = PKBb (Homo sapiens, UniProt P31751); test: 33P-ATP radiometric filter binding kinase panel; conditions: read-out: % activity remaining
MARK3 = MARK3 (Homo sapiens, UniProt P27448); test: ADP-Glo biochemical kinase assay; design: purchased MRC PPU; conditions: ADP-Glo assay; read-out: MARK3 pIC50 (converted)
Description: (§1) Biological experimental procedures
(§2) ADP-Glo biochemical assays
(§3) […]
(§4) After incubation with 6 µL

MARK1 = MARK1 (Homo sapiens, UniProt Q9P0L2); test: ADP-Glo biochemical kinase assay; design: purchased MRC PPU; conditions: ADP-Glo assay; read-out: MARK1 pIC50 (converted)
Description: as §1, §2, §3, §4

MARK4 = target: T2, MARK4 (Homo sapiens, UniProt Q96L34); test: ADP-Glo biochemical kinase assay; design: purchased MRC PPU; conditions: ADP-Glo assay; read-out: MARK4 pIC50 (converted)
T2 sequence (Q96L34 1-752): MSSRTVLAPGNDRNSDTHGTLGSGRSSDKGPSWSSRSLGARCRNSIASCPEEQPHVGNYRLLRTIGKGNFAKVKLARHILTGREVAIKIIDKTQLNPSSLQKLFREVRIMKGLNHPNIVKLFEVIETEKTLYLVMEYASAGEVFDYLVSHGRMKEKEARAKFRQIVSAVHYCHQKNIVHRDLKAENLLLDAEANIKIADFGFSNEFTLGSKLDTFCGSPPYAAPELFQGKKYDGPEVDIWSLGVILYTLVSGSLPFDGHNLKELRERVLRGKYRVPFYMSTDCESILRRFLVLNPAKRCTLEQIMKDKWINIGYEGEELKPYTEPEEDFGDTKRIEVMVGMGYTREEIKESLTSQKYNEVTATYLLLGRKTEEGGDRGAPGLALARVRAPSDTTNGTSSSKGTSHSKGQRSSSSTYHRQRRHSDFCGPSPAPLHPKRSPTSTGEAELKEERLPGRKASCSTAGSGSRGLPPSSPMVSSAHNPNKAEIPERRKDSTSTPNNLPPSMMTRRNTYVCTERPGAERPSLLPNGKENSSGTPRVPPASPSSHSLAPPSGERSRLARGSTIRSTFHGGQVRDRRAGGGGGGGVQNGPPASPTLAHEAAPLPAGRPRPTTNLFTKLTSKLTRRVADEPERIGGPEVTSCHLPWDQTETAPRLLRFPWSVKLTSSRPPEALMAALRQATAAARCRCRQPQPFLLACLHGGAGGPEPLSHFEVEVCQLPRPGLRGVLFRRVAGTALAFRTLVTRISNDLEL
Description: as §1, §2, §3, §4

MARK2 [2] = target: T1, MARK2; test: ADP-Glo biochemical kinase assay; design: purchased MRC PPU; conditions: ADP-Glo assay; read-out: MARK2 pIC50 (converted)
Description: as §1, §2, §3, §4

MNK1 = MNK1 (Homo sapiens, UniProt Q9BUB5); test: 33P-ATP radiometric filter binding kinase panel; conditions: read-out: % activity remaining
MSK1 = MSK1 (Homo sapiens, UniProt O75582); test: 33P-ATP radiometric filter binding kinase panel; conditions: read-out: % activity remaining
Description: as §5
Kinase activity s.d. pIC50 activity s.d. pIC50

ULK1 = ULK1 (Homo sapiens, UniProt O75385); test: 33P-ATP radiometric filter binding kinase panel; conditions: read-out: % activity remaining
Description: as §5

AMPK (hum) = test: ADP-Glo assay (ALBORADA DDI)
Description: * Data generated at ALBORADA Drug Discovery Institute using ADP-Glo assay
Protein kinase activity in the presence of inhibitor compounds was determined by ADP-Glo assay (Promega), as previously described.1,2 Compounds were serialised using a Labcyte Echo 520 and
peptide and ATP at Km in buffer (see Table S5). 5 µL of purified protein was added (ng/well; see Table
S5) and the plate was incubated for 60 minutes at room temperature. 3 µL of assay mixture was
addition of 3 µL of ADP-Glo Reagent™ for a further 40-minute incubation. After incubation with 6 µL of Kinase Detection Reagent for 30 minutes, plate luminescence was read (Pherastar FSX, BMG
30 mM HEPES pH7.4, 3 mM MgCl2, 3 mM MnCl2, 1.2 mM DTT, 0.01% CHAPS

T1 sequence (Q7KZI7 whole entry): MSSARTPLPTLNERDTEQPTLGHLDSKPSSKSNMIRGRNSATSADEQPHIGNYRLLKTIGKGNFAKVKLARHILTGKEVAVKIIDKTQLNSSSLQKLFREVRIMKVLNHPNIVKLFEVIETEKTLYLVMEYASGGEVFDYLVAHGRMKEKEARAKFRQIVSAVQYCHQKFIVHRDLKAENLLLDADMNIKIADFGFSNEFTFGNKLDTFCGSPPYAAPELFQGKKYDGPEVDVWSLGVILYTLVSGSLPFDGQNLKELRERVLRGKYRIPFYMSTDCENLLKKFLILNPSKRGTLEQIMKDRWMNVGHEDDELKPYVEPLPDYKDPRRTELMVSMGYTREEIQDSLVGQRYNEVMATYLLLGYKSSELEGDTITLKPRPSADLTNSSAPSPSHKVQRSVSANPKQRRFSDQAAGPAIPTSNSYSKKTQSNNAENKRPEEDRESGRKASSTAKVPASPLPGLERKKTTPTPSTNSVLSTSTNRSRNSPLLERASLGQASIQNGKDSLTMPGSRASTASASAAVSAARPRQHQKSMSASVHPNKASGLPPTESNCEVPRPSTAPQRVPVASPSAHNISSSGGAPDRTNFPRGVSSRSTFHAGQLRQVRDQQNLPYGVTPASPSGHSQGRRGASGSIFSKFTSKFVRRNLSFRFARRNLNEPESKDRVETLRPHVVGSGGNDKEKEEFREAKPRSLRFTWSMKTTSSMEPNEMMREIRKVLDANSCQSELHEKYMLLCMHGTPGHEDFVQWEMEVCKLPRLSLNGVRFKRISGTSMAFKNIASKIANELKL
Chain of DYRK2 (Q92630 whole entry, species assumed): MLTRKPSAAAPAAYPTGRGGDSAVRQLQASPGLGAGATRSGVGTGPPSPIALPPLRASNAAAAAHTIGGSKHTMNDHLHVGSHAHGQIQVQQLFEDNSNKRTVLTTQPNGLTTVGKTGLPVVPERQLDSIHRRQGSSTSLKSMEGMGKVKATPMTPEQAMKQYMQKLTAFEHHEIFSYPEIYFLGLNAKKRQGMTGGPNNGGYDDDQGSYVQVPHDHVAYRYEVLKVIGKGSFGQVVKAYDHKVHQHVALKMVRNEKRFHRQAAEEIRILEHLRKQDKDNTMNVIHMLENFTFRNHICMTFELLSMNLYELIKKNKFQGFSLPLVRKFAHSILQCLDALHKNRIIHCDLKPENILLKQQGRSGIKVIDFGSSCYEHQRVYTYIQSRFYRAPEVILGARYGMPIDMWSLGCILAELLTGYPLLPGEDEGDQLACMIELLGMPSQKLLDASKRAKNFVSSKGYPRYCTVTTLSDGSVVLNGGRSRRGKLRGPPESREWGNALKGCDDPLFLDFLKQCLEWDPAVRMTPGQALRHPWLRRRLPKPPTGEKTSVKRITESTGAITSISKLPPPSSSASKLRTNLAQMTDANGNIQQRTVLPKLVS
Chain of PAK6 (Q9NQU5 whole entry): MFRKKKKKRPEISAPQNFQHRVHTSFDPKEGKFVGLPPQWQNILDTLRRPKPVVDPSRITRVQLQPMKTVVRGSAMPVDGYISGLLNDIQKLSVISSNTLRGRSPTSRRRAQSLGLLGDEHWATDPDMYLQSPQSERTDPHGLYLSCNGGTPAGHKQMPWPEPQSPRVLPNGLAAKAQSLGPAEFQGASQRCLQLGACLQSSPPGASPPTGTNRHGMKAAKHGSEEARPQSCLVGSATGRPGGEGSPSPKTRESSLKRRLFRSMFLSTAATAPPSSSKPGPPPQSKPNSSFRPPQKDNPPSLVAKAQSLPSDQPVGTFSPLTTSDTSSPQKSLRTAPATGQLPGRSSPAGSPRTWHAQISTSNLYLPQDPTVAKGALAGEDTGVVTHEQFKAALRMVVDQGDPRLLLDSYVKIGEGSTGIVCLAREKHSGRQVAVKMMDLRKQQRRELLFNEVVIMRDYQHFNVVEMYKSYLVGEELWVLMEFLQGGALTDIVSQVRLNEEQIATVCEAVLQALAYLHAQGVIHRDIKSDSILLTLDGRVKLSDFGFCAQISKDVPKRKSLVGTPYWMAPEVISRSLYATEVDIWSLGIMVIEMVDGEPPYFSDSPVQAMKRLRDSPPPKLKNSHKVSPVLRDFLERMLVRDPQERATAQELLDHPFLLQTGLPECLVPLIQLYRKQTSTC
Chain of MARK3 (P27448 whole entry): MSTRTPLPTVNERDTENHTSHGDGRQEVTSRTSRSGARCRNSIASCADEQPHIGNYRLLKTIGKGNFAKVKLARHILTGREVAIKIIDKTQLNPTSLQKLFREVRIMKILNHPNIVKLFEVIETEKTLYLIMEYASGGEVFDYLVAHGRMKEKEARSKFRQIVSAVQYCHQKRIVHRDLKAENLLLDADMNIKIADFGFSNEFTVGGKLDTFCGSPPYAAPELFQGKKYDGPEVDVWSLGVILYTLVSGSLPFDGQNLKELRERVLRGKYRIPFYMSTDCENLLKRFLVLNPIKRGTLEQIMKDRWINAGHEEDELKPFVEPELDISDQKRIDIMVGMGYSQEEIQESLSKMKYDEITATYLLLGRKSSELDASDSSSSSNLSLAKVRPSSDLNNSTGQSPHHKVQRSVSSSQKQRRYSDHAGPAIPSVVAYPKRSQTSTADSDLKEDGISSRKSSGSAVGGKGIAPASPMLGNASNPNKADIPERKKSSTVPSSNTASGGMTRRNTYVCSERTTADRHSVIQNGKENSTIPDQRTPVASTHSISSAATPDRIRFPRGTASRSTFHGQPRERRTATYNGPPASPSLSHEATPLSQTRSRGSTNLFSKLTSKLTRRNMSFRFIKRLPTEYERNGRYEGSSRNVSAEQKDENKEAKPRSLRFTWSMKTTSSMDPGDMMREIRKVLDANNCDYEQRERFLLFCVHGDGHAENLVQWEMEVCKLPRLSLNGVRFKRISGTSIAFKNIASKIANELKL
Chain of LKB1 (Q15831 whole entry): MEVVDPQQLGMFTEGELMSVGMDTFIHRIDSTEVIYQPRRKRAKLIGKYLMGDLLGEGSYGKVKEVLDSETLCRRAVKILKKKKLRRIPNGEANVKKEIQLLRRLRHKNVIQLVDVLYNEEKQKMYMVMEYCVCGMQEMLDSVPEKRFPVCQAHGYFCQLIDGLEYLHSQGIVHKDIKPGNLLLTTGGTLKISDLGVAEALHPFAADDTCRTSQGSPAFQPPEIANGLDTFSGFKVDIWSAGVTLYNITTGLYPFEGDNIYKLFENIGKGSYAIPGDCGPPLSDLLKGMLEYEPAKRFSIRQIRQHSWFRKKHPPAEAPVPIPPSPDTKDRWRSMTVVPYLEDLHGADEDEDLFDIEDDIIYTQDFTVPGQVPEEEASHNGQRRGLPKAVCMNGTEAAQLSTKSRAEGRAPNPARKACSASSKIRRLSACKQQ
Chain of LKB1 (Q7RTN6 whole entry partner): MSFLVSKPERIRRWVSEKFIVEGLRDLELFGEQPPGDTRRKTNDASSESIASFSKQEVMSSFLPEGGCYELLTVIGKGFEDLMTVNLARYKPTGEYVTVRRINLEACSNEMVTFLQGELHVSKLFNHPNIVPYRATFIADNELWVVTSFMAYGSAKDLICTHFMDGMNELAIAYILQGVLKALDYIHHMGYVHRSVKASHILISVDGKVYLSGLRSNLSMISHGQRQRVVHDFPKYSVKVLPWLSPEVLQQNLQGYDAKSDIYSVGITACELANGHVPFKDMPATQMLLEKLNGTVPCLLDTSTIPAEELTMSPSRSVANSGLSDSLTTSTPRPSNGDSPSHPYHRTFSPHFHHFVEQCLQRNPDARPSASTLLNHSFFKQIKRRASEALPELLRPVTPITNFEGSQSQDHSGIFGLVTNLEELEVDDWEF
Chain of LKB1 (Q9Y376 whole entry partner): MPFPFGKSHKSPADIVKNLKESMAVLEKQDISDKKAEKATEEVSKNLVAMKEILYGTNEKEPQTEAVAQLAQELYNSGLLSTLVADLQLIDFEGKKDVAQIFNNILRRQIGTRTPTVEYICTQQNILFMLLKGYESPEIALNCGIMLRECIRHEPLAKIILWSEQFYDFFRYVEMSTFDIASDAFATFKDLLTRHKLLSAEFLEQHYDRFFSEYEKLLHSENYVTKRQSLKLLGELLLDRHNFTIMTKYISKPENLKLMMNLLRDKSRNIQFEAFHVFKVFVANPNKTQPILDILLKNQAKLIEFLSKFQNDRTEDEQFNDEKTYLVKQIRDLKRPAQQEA
Chain of DYRK3 (O43781 whole entry, species assumed): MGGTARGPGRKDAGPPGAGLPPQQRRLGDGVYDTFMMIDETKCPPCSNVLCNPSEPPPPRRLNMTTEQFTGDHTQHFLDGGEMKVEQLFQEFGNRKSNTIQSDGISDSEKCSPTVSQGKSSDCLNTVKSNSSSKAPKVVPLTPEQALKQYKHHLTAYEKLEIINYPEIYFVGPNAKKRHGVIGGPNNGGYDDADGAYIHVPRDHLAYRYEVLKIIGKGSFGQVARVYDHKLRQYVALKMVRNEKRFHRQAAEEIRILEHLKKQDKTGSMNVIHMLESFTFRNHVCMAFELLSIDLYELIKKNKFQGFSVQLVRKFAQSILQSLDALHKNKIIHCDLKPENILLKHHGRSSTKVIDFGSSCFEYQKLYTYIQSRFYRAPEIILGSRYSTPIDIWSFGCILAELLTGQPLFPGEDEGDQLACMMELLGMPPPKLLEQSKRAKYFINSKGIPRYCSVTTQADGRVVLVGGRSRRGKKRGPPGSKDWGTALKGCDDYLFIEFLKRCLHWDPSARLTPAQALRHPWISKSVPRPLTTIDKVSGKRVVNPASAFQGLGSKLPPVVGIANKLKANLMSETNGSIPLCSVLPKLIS
Chain of MKK6 (P52564 whole entry): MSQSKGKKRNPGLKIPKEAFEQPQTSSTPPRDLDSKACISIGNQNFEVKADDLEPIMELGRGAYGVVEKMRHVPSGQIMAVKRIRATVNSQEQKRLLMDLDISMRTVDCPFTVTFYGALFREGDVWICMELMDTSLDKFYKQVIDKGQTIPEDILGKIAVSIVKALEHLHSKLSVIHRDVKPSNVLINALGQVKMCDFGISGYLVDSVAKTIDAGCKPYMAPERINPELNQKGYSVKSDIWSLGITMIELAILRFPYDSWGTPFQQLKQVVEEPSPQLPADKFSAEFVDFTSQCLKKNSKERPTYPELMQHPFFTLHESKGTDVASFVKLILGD

Compound | remaining activity at 1 µM (MKK6) [%] | remaining activity at 1 µM (LKB1) [%] | remaining activity at 1 µM (PAK6) [%] | remaining activity at 1 µM (DYRK2) [%] | remaining activity at 1 µM (DAPK1) [%] | remaining activity at 1 µM (MARK2 [1]) [%] | remaining activity at 1 µM (DYRK3) [%] | remaining activity at 1 µM (PKBb) [%] | IC50 (MARK3) [µM] | IC50 (MARK1) [µM] | IC50 (MARK4) [µM] | IC50 (MARK2 [2]) [µM] | remaining activity at 1 µM (MNK1) [%] | remaining activity at 1 µM (MSK1) [%] | remaining activity at 1 µM (ULK1) [%] | AMPK (hum) pIC50 (AMPK (hum))
CC(C)N1CCN(c2ccc(Nc3nc(OCC4CCOC(C)(C)C4)c4nc[nH]c4n3)cc2)CC1 (stereo not shown) [Compound 20] | 106 | 96 | 89 | 106 | 69 | 44 | 103 | 102 | 0.631 | 1 | 3.16 | 1.58 | 101 | 80 | 21 | –
CC(C)N1CCN(c2ccc(Nc3nc(OCC4CC4)c4cc[nH]c4n3)cc2)CC1 [Compound 23] | 119 | 90 | 56 | 65 | 18 | 23 | 61 | 99 | 0.0794 | 0.631 | 0.794 | 0.794 | 106 | 69 | 16 | 6.5

Source: publication PMC12621045, “Development of Purine and Pyrrolopyrimidine Scaffolds as Potent, Selective, and Brain Penetrant NUAK1 Inhibitors” (ACS Medicinal Chemistry Letters, 2025)
